For six compounds, inhibition, Ratio Ki and Ki results are on record in ChEMBL document CHEMBL1158581, “Synthesis and evaluation of new N6-substituted adenosine-5'-N-methylcarboxamides as A3 adenosine receptor agonists” (Bioorg Med Chem, 2010).

SMILES strings stand for the structures. Activity calls are given as the source filed them. No cut-off for these calls is given here. Where only a bound is given, the exact number is not on record here.

The test system of the first experiment is H9c2. Nature of the experiment: Cardioprotective effect against hypoxic simulated ischemia in rat H9c2 cells assessed as reduction in cell death at 100 nM after 12 hrs by propidium iodide staining-based inverted microscopy in presence of adenosine A3 receptor antagonist MRS-1191. It is filed as functional.
Details: not given
As for `CNC(=O)[C@H]1O[C@@H](n2cnc3c(Nc4ccc(CCNC(=O)c5cc(OC)c(OC)c(OC)c5)cc4)ncnc32)[C@H](O)[C@@H]1O`, the inhibition entry is “inactive”.
Still for that read-out and setting: then `CNC(=O)[C@H]1O[C@@H](n2cnc3c(NCc4ccc(CNC(=O)c5cc(C(C)(C)C)cc(C(C)(C)C)c5)cc4)ncnc32)[C@H](O)[C@@H]1O`, with “inactive”.
Same read-out and setting: then `CNC(=O)[C@H]1O[C@@H](n2cnc3c(NCc4ccc(CNC(=O)c5cc(OC)c(OC)c(OC)c5)cc4)ncnc32)[C@H](O)[C@@H]1O`, with “inactive”.
Still for that read-out and setting: then `CNC(=O)[C@H]1O[C@@H](n2cnc3c(NCc4cccc(I)c4)ncnc32)[C@H](O)[C@@H]1O` [IB-MECA], with “inactive”; and `CNC(=O)[C@H]1O[C@@H](n2cnc3c(Nc4ccc(CCNC(=O)c5cc(C(C)(C)C)cc(C(C)(C)C)c5)cc4)ncnc32)[C@H](O)[C@@H]1O`, with “inactive”.
Turning to `CNC(=O)[C@H]1O[C@@H](n2cnc3c(NCc4ccc(CNC(=O)c5cc(C(C)(C)C)c(O)c(C(C)(C)C)c5)cc4)ncnc32)[C@H](O)[C@@H]1O`, the inhibition result was “inactive”.

The target in a further experiment is Adenosine receptors; A1 & A3 (Homo sapiens) (UniProt P30542+P0DMS8). Nature of the experiment: Selectivity ratio of Ki for human recombinant adenosine A1 receptor to Ki for human recombinant adenosine A3 receptor.
Details: not given
On to `CNC(=O)[C@H]1O[C@@H](n2cnc3c(Nc4ccc(CCNC(=O)c5cc(OC)c(OC)c(OC)c5)cc4)ncnc32)[C@H](O)[C@@H]1O`, for which the Ratio Ki came to 6.2.
With `CNC(=O)[C@H]1O[C@@H](n2cnc3c(NCc4ccc(CNC(=O)c5cc(C(C)(C)C)cc(C(C)(C)C)c5)cc4)ncnc32)[C@H](O)[C@@H]1O`, the Ratio Ki was 14.
Regarding `CNC(=O)[C@H]1O[C@@H](n2cnc3c(NCc4ccc(CNC(=O)c5cc(OC)c(OC)c(OC)c5)cc4)ncnc32)[C@H](O)[C@@H]1O`, the Ratio Ki was 15.
With `CNC(=O)[C@H]1O[C@@H](n2cnc3c(Nc4ccc(CCNC(=O)c5cc(C(C)(C)C)cc(C(C)(C)C)c5)cc4)ncnc32)[C@H](O)[C@@H]1O`, the Ratio Ki is 109.
Same read-out and setting: then `CNC(=O)[C@H]1O[C@@H](n2cnc3c(NCc4ccc(CNC(=O)c5cc(C(C)(C)C)c(O)c(C(C)(C)C)c5)cc4)ncnc32)[C@H](O)[C@@H]1O`, with 19.

The next experiment concerns H9c2. Nature of the experiment: Cardioprotective effect against hypoxic simulated ischemia in rat H9c2 cells assessed as reduction in cell death at 100 nM after 12 hrs by propidium iodide staining-based inverted microscopy.
Details: not given
It counts as functional.
Consider `CNC(=O)[C@H]1O[C@@H](n2cnc3c(Nc4ccc(CCNC(=O)c5cc(OC)c(OC)c(OC)c5)cc4)ncnc32)[C@H](O)[C@@H]1O`, for which the inhibition entry is “Active”.
On the same count and under the same terms, with `CNC(=O)[C@H]1O[C@@H](n2cnc3c(NCc4ccc(CNC(=O)c5cc(OC)c(OC)c(OC)c5)cc4)ncnc32)[C@H](O)[C@@H]1O` the entry was “Active”; with `CNC(=O)[C@H]1O[C@@H](n2cnc3c(NCc4cccc(I)c4)ncnc32)[C@H](O)[C@@H]1O` [IB-MECA], “Active”.
The same measure, in the same setting: then `CNC(=O)[C@H]1O[C@@H](n2cnc3c(Nc4ccc(CCNC(=O)c5cc(C(C)(C)C)cc(C(C)(C)C)c5)cc4)ncnc32)[C@H](O)[C@@H]1O`, with “Active”.
Consider `CNC(=O)[C@H]1O[C@@H](n2cnc3c(NCc4ccc(CNC(=O)c5cc(C(C)(C)C)c(O)c(C(C)(C)C)c5)cc4)ncnc32)[C@H](O)[C@@H]1O`, for which the inhibition entry is “Active”.

The same experiment, now with this note: H9c2, 12 h.
For the compound `CNC(=O)[C@H]1O[C@@H](n2cnc3c(NCc4ccc(CNC(=O)c5cc(C(C)(C)C)cc(C(C)(C)C)c5)cc4)ncnc32)[C@H](O)[C@@H]1O`, the inhibition at 0.1 µM is 68.3%.
Same read-out and setting: then `CNC(=O)[C@H]1O[C@@H](n2cnc3c(NCc4cccc(I)c4)ncnc32)[C@H](O)[C@@H]1O` [IB-MECA], with 54.1%.

The target in a further experiment is T1, Adenosine receptor A3 (Homo sapiens, UniProt P0DMS8).
T1 sequence (P0DMS8 whole entry): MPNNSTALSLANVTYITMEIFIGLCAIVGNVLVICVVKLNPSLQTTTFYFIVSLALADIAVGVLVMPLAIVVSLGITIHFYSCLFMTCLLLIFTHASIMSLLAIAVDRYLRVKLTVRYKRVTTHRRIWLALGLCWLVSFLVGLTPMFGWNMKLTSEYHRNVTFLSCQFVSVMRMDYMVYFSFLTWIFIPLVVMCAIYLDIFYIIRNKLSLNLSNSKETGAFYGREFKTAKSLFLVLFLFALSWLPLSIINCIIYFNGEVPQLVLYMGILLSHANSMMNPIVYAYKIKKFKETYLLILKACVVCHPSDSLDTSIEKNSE
Nature of the experiment: Displacement of [125I]ABA from human recombinant adenosine A3 receptor by rapid filtration technique.
Details: not given
For orientation: Displacement assays read how much labelled ligand stays bound in the presence of the test substance.
With `CNC(=O)[C@H]1O[C@@H](n2cnc3c(Nc4ccc(CCNC(=O)c5cc(OC)c(OC)c(OC)c5)cc4)ncnc32)[C@H](O)[C@@H]1O`, the Ki turned out to be 4.26 nM.
The same measure, in the same setting: with `CNC(=O)[C@H]1O[C@@H](n2cnc3c(NCc4ccc(CNC(=O)c5cc(C(C)(C)C)cc(C(C)(C)C)c5)cc4)ncnc32)[C@H](O)[C@@H]1O` the figure was 9.02 nM; with `CNC(=O)[C@H]1O[C@@H](n2cnc3c(NCc4ccc(CNC(=O)c5cc(OC)c(OC)c(OC)c5)cc4)ncnc32)[C@H](O)[C@@H]1O`, 5.04 nM.
The same measure, in the same setting: then `CNC(=O)[C@H]1O[C@@H](n2cnc3c(Nc4ccc(CCNC(=O)c5cc(C(C)(C)C)cc(C(C)(C)C)c5)cc4)ncnc32)[C@H](O)[C@@H]1O`, with 2.25 nM.
The same measure, in the same setting: with `CNC(=O)[C@H]1O[C@@H](n2cnc3c(NCc4ccc(CNC(=O)c5cc(C(C)(C)C)c(O)c(C(C)(C)C)c5)cc4)ncnc32)[C@H](O)[C@@H]1O` the figure was 5.63 nM.

The target in another experiment is T2, Adenosine receptor A2a (Homo sapiens, UniProt P29274). Nature of the experiment: Displacement of [3H]ZM241385 from human recombinant adenosine A2A receptor by rapid filtration technique.
T2 sequence (P29274 whole entry): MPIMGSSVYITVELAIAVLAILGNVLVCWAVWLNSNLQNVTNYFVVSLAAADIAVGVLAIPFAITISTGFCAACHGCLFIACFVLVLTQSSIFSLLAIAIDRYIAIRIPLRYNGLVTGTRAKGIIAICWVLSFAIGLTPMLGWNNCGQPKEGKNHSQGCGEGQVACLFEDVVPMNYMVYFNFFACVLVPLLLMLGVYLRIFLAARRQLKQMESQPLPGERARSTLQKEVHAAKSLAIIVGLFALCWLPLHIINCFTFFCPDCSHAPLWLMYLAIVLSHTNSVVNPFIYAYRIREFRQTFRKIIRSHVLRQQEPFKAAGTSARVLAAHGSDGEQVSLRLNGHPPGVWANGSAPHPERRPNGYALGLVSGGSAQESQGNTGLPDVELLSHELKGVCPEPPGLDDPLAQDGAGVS
Details: not given
With `CNC(=O)[C@H]1O[C@@H](n2cnc3c(NCc4ccc(CNC(=O)c5cc(C(C)(C)C)cc(C(C)(C)C)c5)cc4)ncnc32)[C@H](O)[C@@H]1O`, the Ki is over 10000 nM.
On the same count and under the same terms, then `CNC(=O)[C@H]1O[C@@H](n2cnc3c(NCc4ccc(CNC(=O)c5cc(OC)c(OC)c(OC)c5)cc4)ncnc32)[C@H](O)[C@@H]1O`, with over 10000 nM; and `CNC(=O)[C@H]1O[C@@H](n2cnc3c(Nc4ccc(CCNC(=O)c5cc(C(C)(C)C)cc(C(C)(C)C)c5)cc4)ncnc32)[C@H](O)[C@@H]1O`, with over 10000 nM.
On the same count and under the same terms, then `CNC(=O)[C@H]1O[C@@H](n2cnc3c(NCc4ccc(CNC(=O)c5cc(C(C)(C)C)c(O)c(C(C)(C)C)c5)cc4)ncnc32)[C@H](O)[C@@H]1O`, with over 10000 nM.

A further experiment relates to H9c2. Nature of the experiment: Cardioprotective effect against hypoxic simulated ischemia in rat H9c2 cells assessed as reduction in cell death at 10 nM after 12 hrs by propidium iodide staining-based inverted microscopy. It counts as functional.
Details: not given
`CNC(=O)[C@H]1O[C@@H](n2cnc3c(Nc4ccc(CCNC(=O)c5cc(OC)c(OC)c(OC)c5)cc4)ncnc32)[C@H](O)[C@@H]1O`: the inhibition result is “inactive”.
The same measure, in the same setting: then `CNC(=O)[C@H]1O[C@@H](n2cnc3c(NCc4ccc(CNC(=O)c5cc(C(C)(C)C)cc(C(C)(C)C)c5)cc4)ncnc32)[C@H](O)[C@@H]1O`, with “inactive”; and `CNC(=O)[C@H]1O[C@@H](n2cnc3c(NCc4ccc(CNC(=O)c5cc(OC)c(OC)c(OC)c5)cc4)ncnc32)[C@H](O)[C@@H]1O`, with “inactive”; and `CNC(=O)[C@H]1O[C@@H](n2cnc3c(NCc4cccc(I)c4)ncnc32)[C@H](O)[C@@H]1O` [IB-MECA], with “inactive”.
The same measure, in the same setting: then `CNC(=O)[C@H]1O[C@@H](n2cnc3c(Nc4ccc(CCNC(=O)c5cc(C(C)(C)C)cc(C(C)(C)C)c5)cc4)ncnc32)[C@H](O)[C@@H]1O`, with “inactive”.
Still for that read-out and setting: with `CNC(=O)[C@H]1O[C@@H](n2cnc3c(NCc4ccc(CNC(=O)c5cc(C(C)(C)C)c(O)c(C(C)(C)C)c5)cc4)ncnc32)[C@H](O)[C@@H]1O` the entry was “inactive”.

A further experiment addresses T2, Adenosine receptor A2a. Nature of the experiment: Displacement of [3H]ZM241385 from human recombinant adenosine A2A receptor at 10 uM by rapid filtration technique.
Details: not given
On to `CNC(=O)[C@H]1O[C@@H](n2cnc3c(Nc4ccc(CCNC(=O)c5cc(OC)c(OC)c(OC)c5)cc4)ncnc32)[C@H](O)[C@@H]1O`, for which the inhibition was found to be 27%.

A further experiment concerns the target T3, Adenosine receptor A1 (Homo sapiens, UniProt P30542).
T3 sequence (P30542 whole entry): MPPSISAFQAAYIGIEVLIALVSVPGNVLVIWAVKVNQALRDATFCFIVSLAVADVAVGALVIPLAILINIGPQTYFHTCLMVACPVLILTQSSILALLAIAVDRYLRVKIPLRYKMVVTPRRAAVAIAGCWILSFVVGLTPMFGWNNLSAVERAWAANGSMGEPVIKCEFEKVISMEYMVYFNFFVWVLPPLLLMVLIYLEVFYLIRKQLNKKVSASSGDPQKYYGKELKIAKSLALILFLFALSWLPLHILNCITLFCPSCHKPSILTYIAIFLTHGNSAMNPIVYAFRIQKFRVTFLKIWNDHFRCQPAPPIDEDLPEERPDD
Nature of the experiment: Displacement of [125I]ABA from human recombinant adenosine A1 receptor by rapid filtration technique.
Details: not given
For the compound `CNC(=O)[C@H]1O[C@@H](n2cnc3c(Nc4ccc(CCNC(=O)c5cc(OC)c(OC)c(OC)c5)cc4)ncnc32)[C@H](O)[C@@H]1O`, the Ki is 26.2 nM.
On the same count and under the same terms, with `CNC(=O)[C@H]1O[C@@H](n2cnc3c(NCc4ccc(CNC(=O)c5cc(C(C)(C)C)cc(C(C)(C)C)c5)cc4)ncnc32)[C@H](O)[C@@H]1O` the figure was 128 nM; with `CNC(=O)[C@H]1O[C@@H](n2cnc3c(NCc4ccc(CNC(=O)c5cc(OC)c(OC)c(OC)c5)cc4)ncnc32)[C@H](O)[C@@H]1O`, 76.8 nM.
The same measure, in the same setting: then `CNC(=O)[C@H]1O[C@@H](n2cnc3c(Nc4ccc(CCNC(=O)c5cc(C(C)(C)C)cc(C(C)(C)C)c5)cc4)ncnc32)[C@H](O)[C@@H]1O`, with 245 nM; and `CNC(=O)[C@H]1O[C@@H](n2cnc3c(NCc4ccc(CNC(=O)c5cc(C(C)(C)C)c(O)c(C(C)(C)C)c5)cc4)ncnc32)[C@H](O)[C@@H]1O`, with 105 nM.

One may read the inhibition as the drop in the measured response relative to a control, in per cent. For orientation: Ki means a measure of affinity in units of concentration, obtained from inhibition or displacement.
